These results are taken from PubChem BioAssay (NCI).

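96-well plates; 48 h exposure; 5 concentrations. Endpoints by linear interpolation between flanking doses. Not reached: highest tested concentration assigned. GI50 marks 50% less growth. TGI: concentration producing complete growth inhibition.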 A value given as a limit tells only on which side of the number the result lay.

Among the test systems are PC-3 prostate; RPMI-8226 leukemia; HS 578T breast; SNB-75 CNS; MALME-3M melanoma; TK-10 renal; UACC-62 melanoma; SW-620 colon; A498 renal; M14 melanoma.
Assay in all cases: NCI tumour cell line growth inhibition, 48 h

Turning to `C[C@]12CC[C@@H]3c4ccc(OC(=O)N(CCCl)CCCl)cc4CC[C@H]3[C@@H]1CC[C@@H]2O`, the GI50 in the assay on PC-3 prostate is 3.02 µM; with RPMI-8226 leukemia it was 1.62 µM; in the assay with HS 578T breast, 1.89 µM; with SNB-75 CNS, 2.48 µM; in the assay on MALME-3M melanoma it was 1.16 µM; in the assay on TK-10 renal it was 3.04 µM. The GI50 in the assay on UACC-62 melanoma was 1.41 µM; in the assay on SW-620 colon, 1.58 µM; in the assay with A498 renal, 1.6 µM; in the assay with M14 melanoma it was 1.61 µM. Also, the TGI was greater than 40.2 µM with PC-3 prostate; 5.42 µM in the assay with RPMI-8226 leukemia; 10.8 µM in the assay with HS 578T breast; 15.1 µM with SNB-75 CNS; 7.52 µM in the assay on MALME-3M melanoma; 9.98 µM with TK-10 renal. In addition, the TGI in the assay with UACC-62 melanoma is 16.2 µM; with A498 renal it was 9 µM; in the assay on M14 melanoma, 11.5 µM.
On to `CC(C)Cn1cnc2c(SCc3ccc(Cl)cc3Cl)nc(N)nc21`, for which the TGI with PC-3 prostate was greater than 100 µM; with RPMI-8226 leukemia it was 74.8 µM; with HS 578T breast, greater than 100 µM; in the assay with SNB-75 CNS, greater than 100 µM; with MALME-3M melanoma it was 71.6 µM; with TK-10 renal, greater than 100 µM. Moreover, the TGI was greater than 100 µM in the assay with UACC-62 melanoma, greater than 100 µM in the assay on SW-620 colon, 49.5 µM in the assay with A498 renal and greater than 100 µM with M14 melanoma.
Regarding `CCOC(=O)N1CCN(/[N+]([O-])=N/Oc2ccc([N+](=O)[O-])cc2[N+](=O)[O-])CC1`, the GI50 in the assay on PC-3 prostate was 3.48 µM; in the assay with RPMI-8226 leukemia, 0.34 µM; with HS 578T breast, 5.84 µM; in the assay with SNB-75 CNS, 4.92 µM; with MALME-3M melanoma, 1.59 µM; with TK-10 renal, 0.406 µM. Moreover, the GI50 in the assay with UACC-62 melanoma is 2.65 µM; in the assay with SW-620 colon, 0.434 µM; with A498 renal, 17.5 µM; in the assay on M14 melanoma it was 0.328 µM. The TGI in the assay with PC-3 prostate came to 16.7 µM; with RPMI-8226 leukemia, 12.9 µM; in the assay on HS 578T breast it was 37.4 µM; with SNB-75 CNS it was 18.8 µM; with MALME-3M melanoma, 4.05 µM; in the assay on TK-10 renal it was 5.57 µM. Also, the TGI with UACC-62 melanoma was determined as 12.8 µM; in the assay with SW-620 colon, 35.7 µM; with A498 renal, 35.6 µM; in the assay with M14 melanoma, 1.43 µM.
`O=C(Oc1cccc(F)c1OC(=O)c1cccc(O)c1)c1cccc(O)c1`: the GI50 in the assay on PC-3 prostate is 52.9 µM; in the assay with RPMI-8226 leukemia it was 14.5 µM; with HS 578T breast, greater than 100 µM; in the assay with SNB-75 CNS it was 35.5 µM; with MALME-3M melanoma, greater than 100 µM; in the assay on TK-10 renal it was 98.6 µM. Further, the GI50 in the assay on UACC-62 melanoma is 40.8 µM; with SW-620 colon, 37.4 µM; in the assay with A498 renal, greater than 100 µM; in the assay on M14 melanoma it was 34.1 µM. The TGI in the assay on PC-3 prostate, in the assay on RPMI-8226 leukemia, in the assay on HS 578T breast, in the assay on SNB-75 CNS, in the assay with MALME-3M melanoma and with TK-10 renal was greater than 100 µM each time. Also, the TGI with UACC-62 melanoma, with SW-620 colon, in the assay on A498 renal and in the assay on M14 melanoma was greater than 100 µM throughout.
As to `CN(/N=C/c1cccc2cccnc12)c1ccc([N+](=O)[O-])cc1[N+](=O)[O-]`, the TGI in the assay on PC-3 prostate was greater than 100 µM; with RPMI-8226 leukemia, greater than 100 µM; in the assay on HS 578T breast, 34.8 µM; in the assay on SNB-75 CNS it was 25.8 µM; in the assay with MALME-3M melanoma it was 70.2 µM; with TK-10 renal it was 54 µM. For the same compound, the TGI is 63.1 µM in the assay with UACC-62 melanoma, greater than 100 µM in the assay on SW-620 colon, 43.7 µM in the assay with A498 renal and greater than 94.4 µM in the assay on M14 melanoma.
As to `C/C=C(\C)C(=O)NC1=CC[C@@]2(C)C(=CCC3C2CC[C@@]2(C)C3CC[C@@H]2C(C)N(C)C)C1=O` (some centres undefined), the GI50 in the assay with PC-3 prostate is 2.5 µM; in the assay with RPMI-8226 leukemia, 1.91 µM; in the assay on HS 578T breast it was 4.65 µM; in the assay with SNB-75 CNS it was 5.22 µM; in the assay with MALME-3M melanoma, 2.1 µM; with TK-10 renal it was 12.3 µM. The GI50 was 1.82 µM in the assay on UACC-62 melanoma, 2.02 µM in the assay on SW-620 colon, 2.03 µM in the assay with A498 renal and 1.81 µM in the assay with M14 melanoma. Also, the TGI was 17.7 µM in the assay on PC-3 prostate; 9.38 µM with RPMI-8226 leukemia; 23.2 µM with HS 578T breast; 28.4 µM with SNB-75 CNS; 5.34 µM with MALME-3M melanoma; 32.4 µM in the assay with TK-10 renal. Moreover, the TGI in the assay on UACC-62 melanoma amounted to 3.85 µM; in the assay on SW-620 colon, 4.91 µM; in the assay with A498 renal, 18.2 µM; in the assay on M14 melanoma, 3.44 µM.
Consider `O=C(Nc1ccc([As](=O)(O)O)cc1)Nc1cccc(Cl)c1Cl`, for which the TGI with PC-3 prostate is greater than 100 µM; in the assay with RPMI-8226 leukemia, greater than 100 µM; with HS 578T breast it was 84.8 µM; in the assay on SNB-75 CNS, 65.4 µM; in the assay on MALME-3M melanoma, greater than 100 µM; in the assay on TK-10 renal it was greater than 100 µM. In addition, the TGI in the assay on UACC-62 melanoma, with SW-620 colon, with A498 renal and in the assay on M14 melanoma was greater than 100 µM in each case.
As for `CC(=O)NC1C(OC[C@@H](CC(=O)N[C@@H](CC(=O)O)CC(=O)N[C@H](CC(=O)N[C@@H](CCCN)CC(=O)N[C@@H](CCCN)CC(=O)N[C@H](CC(N)=O)C(C)C)C(C)C)NC(=O)C[C@@H](N)C(C)C)OC(CO)C(O)C1O` (some centres undefined), the GI50 in the assay on PC-3 prostate, in the assay with RPMI-8226 leukemia, in the assay on HS 578T breast, in the assay on SNB-75 CNS, with MALME-3M melanoma and in the assay with TK-10 renal was greater than 100 µM throughout. Besides, the GI50 with UACC-62 melanoma, in the assay with SW-620 colon, in the assay on A498 renal and in the assay with M14 melanoma was greater than 100 µM in each case. The TGI in the assay on PC-3 prostate, in the assay on RPMI-8226 leukemia, with HS 578T breast, in the assay on SNB-75 CNS, in the assay with MALME-3M melanoma and in the assay with TK-10 renal was greater than 100 µM each time. Besides, the TGI in the assay with UACC-62 melanoma, in the assay on SW-620 colon, with A498 renal and in the assay with M14 melanoma was greater than 100 µM throughout.
